Assay results published in patent US5786371A, “Pyridine and pyridazine derivatives, processes for the production thereof and pharmaceutical agents containing these compounds” (Boehringer Mannheim GmbH, priority 1995, dated 1998).
Where two headings read alike, the source gives them in different places.

Biological target: GpIIb/IIIa receptor (Homo sapiens, UniProt P05106+P08514)
Assay: GpIIb/IIIa-Fibrinogen-Elisa (inhibition of fibrinogen-GpIIb/IIIa interaction)
Type: binding
Conditions: 1 hour incubation, optical density at 405 nm
Procedure: Microtitre plates are coated overnight with 2 μg/ml isolated activated GpIIb/IIIa receptor. After removing the unbound receptor by washing several times, the surface of the plates is blocked with 1% casein and washed again. The test substance is added in the required concentrations and the plates are incubated for 10 minutes while shaking. The natural ligand of the gpIIb/IIIa receptor, fibrinogen, is added. After 1 hour of incubation the unbound fibrinogen is removed by washing several times and the bound fibrinogen is determined by a peroxidase-conjugated anti-fibrinogen monoclonal antibody by measuring the optical density at 405 nm in an ELISA instrument. Inhibition of a fibrinogen-GpIIb/IIIa interaction results in a low optical density. An IC50 is calculated based on a concentration-effect curve.
The GpIIb/IIIa-Fibrinogen-Elisa is a modification of assays described in the following literature:
Nachman, R. L. & Leung, L. L. K. (1982): Complex formation of platelet membrane glycoproteins IIb and IIIa with fibrinogen. J. Clin. Invest. 69:263-269. Wright, P. S. et al. (1993): An echistatin C-terminal peptide activated GpIIbIIIa binding to fibrinogen, fibronectin, vitronectin and collagen type I and type IV. Biochem. J. 293:263-267.

[1] = isolated activated GpIIb/IIIa receptor on microtitre plates, read-out: IC50

Sequence of GpIIb/IIIa receptor (P08514 32-887 limits assumed): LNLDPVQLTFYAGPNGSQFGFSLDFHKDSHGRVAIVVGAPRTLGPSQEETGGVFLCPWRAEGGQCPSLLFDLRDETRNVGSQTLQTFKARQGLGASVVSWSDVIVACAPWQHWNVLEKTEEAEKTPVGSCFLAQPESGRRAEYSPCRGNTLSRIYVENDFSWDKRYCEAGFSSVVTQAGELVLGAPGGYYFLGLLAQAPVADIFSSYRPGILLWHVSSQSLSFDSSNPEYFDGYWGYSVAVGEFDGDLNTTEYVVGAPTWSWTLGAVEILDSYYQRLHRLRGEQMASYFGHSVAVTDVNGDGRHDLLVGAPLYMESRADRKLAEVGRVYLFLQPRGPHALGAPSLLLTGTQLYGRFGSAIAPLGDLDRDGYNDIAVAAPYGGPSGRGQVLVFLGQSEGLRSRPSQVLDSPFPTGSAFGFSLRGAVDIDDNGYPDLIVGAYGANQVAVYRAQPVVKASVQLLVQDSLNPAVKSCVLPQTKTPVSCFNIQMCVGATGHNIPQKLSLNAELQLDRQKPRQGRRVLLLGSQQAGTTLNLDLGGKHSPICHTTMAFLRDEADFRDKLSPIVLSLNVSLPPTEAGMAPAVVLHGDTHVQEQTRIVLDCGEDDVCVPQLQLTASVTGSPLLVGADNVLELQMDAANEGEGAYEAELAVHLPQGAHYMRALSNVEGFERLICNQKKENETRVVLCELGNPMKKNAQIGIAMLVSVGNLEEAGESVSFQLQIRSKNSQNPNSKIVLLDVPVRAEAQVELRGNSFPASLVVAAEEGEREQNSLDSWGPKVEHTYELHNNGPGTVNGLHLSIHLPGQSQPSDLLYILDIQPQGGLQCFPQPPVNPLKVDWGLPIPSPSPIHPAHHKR
Sequence of GpIIb/IIIa receptor (P08514 891-1039 limits assumed): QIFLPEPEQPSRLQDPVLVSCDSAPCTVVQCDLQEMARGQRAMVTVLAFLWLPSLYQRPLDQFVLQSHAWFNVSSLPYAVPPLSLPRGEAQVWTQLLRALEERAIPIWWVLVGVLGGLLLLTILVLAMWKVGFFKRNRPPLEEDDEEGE
Sequence of GpIIb/IIIa receptor (P05106 27-788): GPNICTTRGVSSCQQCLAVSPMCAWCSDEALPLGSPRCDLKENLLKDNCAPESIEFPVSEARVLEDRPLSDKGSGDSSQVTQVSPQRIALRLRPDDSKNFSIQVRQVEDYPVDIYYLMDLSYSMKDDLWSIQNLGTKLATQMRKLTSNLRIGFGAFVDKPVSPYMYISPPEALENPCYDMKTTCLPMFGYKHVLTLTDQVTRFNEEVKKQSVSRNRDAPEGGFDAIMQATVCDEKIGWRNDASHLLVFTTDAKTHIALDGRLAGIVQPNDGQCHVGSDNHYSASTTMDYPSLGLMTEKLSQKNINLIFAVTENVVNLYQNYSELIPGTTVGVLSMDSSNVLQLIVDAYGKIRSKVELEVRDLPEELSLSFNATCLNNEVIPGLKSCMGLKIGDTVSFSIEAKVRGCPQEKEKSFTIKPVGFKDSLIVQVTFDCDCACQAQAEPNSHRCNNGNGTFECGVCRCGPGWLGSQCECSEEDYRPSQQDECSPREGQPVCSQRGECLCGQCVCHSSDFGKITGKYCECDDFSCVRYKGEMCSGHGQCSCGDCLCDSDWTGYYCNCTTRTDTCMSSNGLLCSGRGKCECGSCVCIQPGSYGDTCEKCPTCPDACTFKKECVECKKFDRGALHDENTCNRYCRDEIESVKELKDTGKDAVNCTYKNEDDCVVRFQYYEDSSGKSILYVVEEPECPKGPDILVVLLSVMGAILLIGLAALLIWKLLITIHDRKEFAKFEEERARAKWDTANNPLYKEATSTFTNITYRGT

IC50 [1] [µM]	IC50 (reference substance, isolated activated GpIIb/IIIa receptor, read-out: IC50 value in the above assay (comparative experiments)) [µM]	Compound
0.2		O=C(O)CC1(O)CCC(N2CCC(CCCNc3ccncc3)CC2)CC1 (stereo not shown) [12 (page 35), (1-Hydroxy-4-{4-[3-(pyridin-4-ylamino)-propyl]-piperidin-1-yl}-cyclohexyl)-acetic acid]
0.14		O=C(O)CC1(O)CCC(N2CCC(Nc3ccncc3)CC2)CC1 (stereo not shown) [Example 5]
0.3		(4-{3-[(Pyridin-4-ylamino)-propyl]-piperidin-1-yl}-cyclohexyl)-acetic acid [62 (page 40)]
	2.5	O=C(O)CC1(O)CCC(N2CCN(c3ccncc3)CC2)CC1 (stereo not drawn) [cis-1-hydroxy-4-[4-(4-pyridyl)-piperazin-1-yl]-acetic acid, reference compound]
